# Earlier results as cited in patent US8097259B2, “Method for prevention and treatment of Alzheimer's disease” (SunWay Biotech Co., Ltd., priority 2007, dated 2012).
# Test system: Alzheimer's disease
# Details: Wolozin et al. 2000
structure (smiles),measurement,value
CC[C@H](C)C(=O)O[C@H]1C[C@@H](C)C=C2C=C[C@H](C)[C@H](CC[C@@H]3C[C@@H](O)CC(=O)O3)[C@H]21 [lovastatin],results for AD treatment among statins,best results
